Consider eleven compounds from ChEMBL document CHEMBL1201862, “PubChem BioAssay data set” (2004).

Among the test systems are A498; CAKI-1; CCRF-CEM; COLO 205; DU-145; EKVX; HCC 2998; HCT-15; Hs-578T; KM12; LOX IMVI; M14; NCI/ADR-RES; OVCAR-3; SN12C; SNB-19; SW-620; T47D; UACC-62; MDA-MB-231.
What all share (test): inhibition of tumour cell growth, NCI panel, 48 h

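Five compound concentrations were applied to cells in 96-well plates for 48 hours; endpoints were derived by simple linear interpolation of the resulting dose-response curve. GI50 = concentration required for 50% inhibition of growth.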 Active and inactive are the calls of the source. Rule as the data show it: active = GI50 up to about 1.1 µM and inactive = higher.

For the compound `Cc1ccc(-c2n[nH]c(=O)[nH]2)cc1[N+](=O)[O-]`, the GI50 in the assay on A498 was > 100 µM (inactive); in the assay with CAKI-1, > 100 µM (inactive); in the assay with CCRF-CEM, > 100 µM (inactive); in the assay on COLO 205 it was > 100 µM (inactive); with DU-145, > 100 µM (inactive); with EKVX, 0.643 µM (active). Besides, the GI50 in the assay on HCC 2998 is 63.4 µM (inactive); with HCT-15 it was greater than 100 µM; in the assay with Hs-578T, 3.01 µM (inactive); with KM12, > 100 µM (inactive); with LOX IMVI, > 100 µM (inactive); in the assay with M14, > 100 µM (inactive). Also, the GI50 in the assay with NCI/ADR-RES, with OVCAR-3, with SN12C, in the assay on SNB-19, in the assay with SW-620 and in the assay with T47D was > 100 µM (inactive) each time. Also, in the assay on UACC-62, the GI50 was > 100 µM (inactive).

Consider `NC12CC3C4CC5(N)CC3C(C1)C(C5)C4C2`, for which the GI50 in the assay on A498 was > 100 µM (inactive); in the assay with CAKI-1 it was > 100 µM (inactive); in the assay with CCRF-CEM, > 100 µM (inactive); in the assay on COLO 205 it was > 100 µM (inactive); in the assay on EKVX it was > 100 µM (inactive); in the assay on HCT-15, greater than 100 µM. The GI50 with Hs-578T, with KM12, in the assay on LOX IMVI, in the assay with M14, in the assay on MDA-MB-231 and in the assay on NCI/ADR-RES was > 100 µM (inactive) in each case. The GI50 with OVCAR-3, in the assay on SN12C, in the assay on SNB-19, in the assay on SW-620, with T47D and in the assay on UACC-62 was > 100 µM (inactive) in each case.

For `Nc1nccc2c1ncn2C1C=C(CO)C(O)C1O` (stereo not drawn), the GI50 in the assay with A498 was > 100 µM (inactive); with CAKI-1, 21.1 µM (inactive); in the assay with CCRF-CEM, 2.76 µM (inactive); with COLO 205 it was 19.7 µM (inactive); in the assay with DU-145, > 100 µM (inactive); in the assay with EKVX, > 94.6 µM (inactive). Moreover, the GI50 with HCC 2998 is 48.2 µM (inactive); with HCT-15 it was 13.2 µM; with KM12 it was 1.6 µM (inactive); in the assay on LOX IMVI, 27.5 µM (inactive); in the assay on M14, 70 µM (inactive); with MDA-MB-231, > 100 µM (inactive). Also, the GI50 in the assay with NCI/ADR-RES was 7.05 µM (inactive); with OVCAR-3, > 94.4 µM (inactive); in the assay on SN12C, 74.3 µM (inactive); in the assay with SNB-19, 62.7 µM (inactive); in the assay with SW-620, 1.75 µM (inactive); in the assay on T47D it was > 100 µM (inactive). For the same compound, the GI50 in the assay on UACC-62 is 11.5 µM (inactive).

Regarding `O=C1[C@H](O)[C@@H]2CCC[C@@]23CCCN13`, the GI50 with A498 is > 100 µM (inactive); with CAKI-1, > 100 µM (inactive); in the assay on CCRF-CEM it was 94.4 µM (inactive); in the assay on COLO 205, > 100 µM (inactive); in the assay with DU-145, > 100 µM (inactive); with EKVX, > 100 µM (inactive). For the same compound, the GI50 was > 100 µM (inactive) with HCC 2998; greater than 100 µM with HCT-15; > 100 µM (inactive) in the assay on Hs-578T; > 100 µM (inactive) in the assay with KM12; > 100 µM (inactive) in the assay with LOX IMVI; > 100 µM (inactive) in the assay on M14. Further, the GI50 with NCI/ADR-RES, with OVCAR-3, in the assay with SN12C, with SW-620, with T47D and in the assay on UACC-62 was > 100 µM (inactive) in each case.

Regarding `COC(=O)C1C(=O)CC(C)(O)C(C(=O)OC)C1c1ccc(N(C)C)cc1` (stereo not drawn), the GI50 in the assay on A498, with CAKI-1, in the assay with CCRF-CEM, with COLO 205, in the assay with DU-145 and in the assay on EKVX was > 100 µM (inactive) in each case. In addition, the GI50 with HCC 2998 was > 100 µM (inactive); with HCT-15 it was greater than 100 µM; in the assay on KM12, > 100 µM (inactive); in the assay on LOX IMVI, 11.6 µM (inactive); with MDA-MB-231, > 100 µM (inactive); in the assay on NCI/ADR-RES it was > 100 µM (inactive). In addition, the GI50 in the assay with OVCAR-3, in the assay with SN12C, with SNB-19, with SW-620, in the assay with T47D and in the assay with UACC-62 was > 100 µM (inactive) in each case.

Take `COc1cc(OC)c2c3c(OC)cc(OC)c4c(=O)c(O)c(C[C@@H](C)O)c(c5c(C[C@@H](C)O)c(O)c(=O)c1c25)c43`: the GI50 in the assay with A498 was 28.8 µM (inactive); in the assay with CAKI-1 it was 18.8 µM (inactive); in the assay with COLO 205, 3.72 µM (inactive); with DU-145, 30.8 µM (inactive); with EKVX it was 32.4 µM (inactive); with HCC 2998, 16.3 µM (inactive). In addition, the GI50 in the assay with HCT-15 was 19.2 µM; with KM12, 23.2 µM (inactive); with LOX IMVI, 12.6 µM (inactive); with M14 it was 17.4 µM (inactive); in the assay with MDA-MB-231 it was 1.89 µM (inactive); in the assay on NCI/ADR-RES it was 30.3 µM (inactive). Moreover, the GI50 is 1.02 µM (active) in the assay with OVCAR-3; 24.5 µM (inactive) in the assay with SN12C; 57.5 µM (inactive) in the assay with SNB-19; 15.5 µM (inactive) with SW-620; 16.6 µM (inactive) in the assay with T47D.

Consider `CC1(C)O[C@H]2[C@@H]3N=C(c4ccccc4)O[C@@H]3C=C[C@H]2O1`, for which the GI50 was > 100 µM (inactive) in the assay with A498; > 100 µM (inactive) in the assay on CAKI-1; > 100 µM (inactive) in the assay with CCRF-CEM; > 100 µM (inactive) in the assay with COLO 205; > 100 µM (inactive) in the assay on DU-145; 59.7 µM (inactive) with EKVX. For the same compound, the GI50 in the assay on HCC 2998 was > 100 µM (inactive); in the assay on HCT-15, greater than 100 µM; in the assay on KM12, > 100 µM (inactive); in the assay on LOX IMVI, > 100 µM (inactive); in the assay on M14, > 100 µM (inactive); in the assay on MDA-MB-231, > 100 µM (inactive). The GI50 in the assay with NCI/ADR-RES, in the assay with OVCAR-3, with SN12C, in the assay with SNB-19, in the assay on SW-620 and in the assay with T47D was > 100 µM (inactive) each time. Also, the GI50 in the assay on UACC-62 is > 100 µM (inactive).

Consider `CC(=O)/C(=C/N1CC(=O)NC1=S)C(=O)Nc1ccccc1C`, for which the GI50 in the assay with A498, in the assay on CAKI-1, in the assay with COLO 205, in the assay on DU-145, in the assay with EKVX and in the assay on HCC 2998 was > 100 µM (inactive) each time. Besides, the GI50 in the assay with HCT-15 was greater than 100 µM; in the assay with KM12, > 100 µM (inactive); in the assay with LOX IMVI it was > 100 µM (inactive); in the assay with M14, > 100 µM (inactive); with MDA-MB-231 it was > 100 µM (inactive); in the assay with NCI/ADR-RES, > 100 µM (inactive). Also, the GI50 in the assay with OVCAR-3, in the assay with SN12C, in the assay on SNB-19, with SW-620 and in the assay with T47D was > 100 µM (inactive) in each case.

Turning to `CC(C)(C)OC(=O)N1NC(c2ccccc2)CC1c1ccccc1` (stereo not drawn), the GI50 with A498 was 27.8 µM (inactive); with CAKI-1, 35 µM (inactive); in the assay on CCRF-CEM, 19 µM (inactive); with COLO 205, 20 µM (inactive); in the assay on DU-145 it was 27.2 µM (inactive); in the assay with EKVX, 33.7 µM (inactive). Moreover, the GI50 is 38.5 µM (inactive) with HCC 2998; 22.1 µM in the assay on HCT-15; 36.6 µM (inactive) in the assay on Hs-578T; 20.7 µM (inactive) in the assay on KM12; 16.3 µM (inactive) in the assay on M14; 20.2 µM (inactive) with NCI/ADR-RES. Besides, the GI50 in the assay with OVCAR-3 is 34.8 µM (inactive); with SN12C, 45.1 µM (inactive); with SW-620, 45 µM (inactive); in the assay with T47D, 13.5 µM (inactive); in the assay with UACC-62 it was 20.6 µM (inactive).

For the compound `O=C(CSc1nc2nncc-2c(O)[nH]1)c1ccc(Cl)cc1`, the GI50 was > 100 µM (inactive) with CAKI-1; > 100 µM (inactive) in the assay with CCRF-CEM; > 100 µM (inactive) with COLO 205; 66.5 µM (inactive) with EKVX; > 100 µM (inactive) in the assay with HCC 2998; 93.8 µM in the assay with HCT-15. The GI50 in the assay on Hs-578T, with KM12, in the assay with LOX IMVI, in the assay on M14, in the assay with MDA-MB-231 and in the assay on NCI/ADR-RES was > 100 µM (inactive) in each case. The GI50 in the assay with OVCAR-3, with SN12C, in the assay on SNB-19, in the assay on SW-620, in the assay on T47D and in the assay on UACC-62 was > 100 µM (inactive) throughout.

Regarding `COC(=O)c1c(C)cccc1C1CN=NC12Cc1cccc(C)c1C2=O` (stereo not drawn), the GI50 is 52 µM (inactive) with A498; 37.7 µM (inactive) with CAKI-1; 19.8 µM (inactive) with CCRF-CEM; 42.7 µM (inactive) with COLO 205; 47.3 µM (inactive) with DU-145; 32 µM (inactive) in the assay on EKVX. For the same compound, the GI50 was 38 µM (inactive) with HCC 2998; 34 µM with HCT-15; > 100 µM (inactive) in the assay on Hs-578T; 31.7 µM (inactive) in the assay on KM12; 13.6 µM (inactive) with LOX IMVI; 10.4 µM (inactive) in the assay on M14. The GI50 in the assay on NCI/ADR-RES was 21.7 µM (inactive); with SN12C, 27.2 µM (inactive); with SNB-19, 48.8 µM (inactive); in the assay on SW-620 it was 43.2 µM (inactive); in the assay with T47D it was 24 µM (inactive); in the assay on UACC-62 it was 26.9 µM (inactive).
